Results on 1 molecule are retold here after PMC5472308, “Characterization of the regulation of a plant polysaccharide utilization operon and its role in biofilm formation in Bacillus subtilis” (PLoS ONE, 2017).

The experiment addresses T1, LacZ (Escherichia coli, UniProt P00722).
T1 construct: lacZ reporter of plasmid pDG268 (PganS-lacZ at amyE) expressed in B. subtilis YC1074 (ganR R20H, ganA deleted); cleared sonicated lysate
The format is biochemical. The following applies: 2.5 mM ONPG; Z buffer; qualitative.

Each structure is given as a SMILES string.

T1 sequence (P00722 2-1024): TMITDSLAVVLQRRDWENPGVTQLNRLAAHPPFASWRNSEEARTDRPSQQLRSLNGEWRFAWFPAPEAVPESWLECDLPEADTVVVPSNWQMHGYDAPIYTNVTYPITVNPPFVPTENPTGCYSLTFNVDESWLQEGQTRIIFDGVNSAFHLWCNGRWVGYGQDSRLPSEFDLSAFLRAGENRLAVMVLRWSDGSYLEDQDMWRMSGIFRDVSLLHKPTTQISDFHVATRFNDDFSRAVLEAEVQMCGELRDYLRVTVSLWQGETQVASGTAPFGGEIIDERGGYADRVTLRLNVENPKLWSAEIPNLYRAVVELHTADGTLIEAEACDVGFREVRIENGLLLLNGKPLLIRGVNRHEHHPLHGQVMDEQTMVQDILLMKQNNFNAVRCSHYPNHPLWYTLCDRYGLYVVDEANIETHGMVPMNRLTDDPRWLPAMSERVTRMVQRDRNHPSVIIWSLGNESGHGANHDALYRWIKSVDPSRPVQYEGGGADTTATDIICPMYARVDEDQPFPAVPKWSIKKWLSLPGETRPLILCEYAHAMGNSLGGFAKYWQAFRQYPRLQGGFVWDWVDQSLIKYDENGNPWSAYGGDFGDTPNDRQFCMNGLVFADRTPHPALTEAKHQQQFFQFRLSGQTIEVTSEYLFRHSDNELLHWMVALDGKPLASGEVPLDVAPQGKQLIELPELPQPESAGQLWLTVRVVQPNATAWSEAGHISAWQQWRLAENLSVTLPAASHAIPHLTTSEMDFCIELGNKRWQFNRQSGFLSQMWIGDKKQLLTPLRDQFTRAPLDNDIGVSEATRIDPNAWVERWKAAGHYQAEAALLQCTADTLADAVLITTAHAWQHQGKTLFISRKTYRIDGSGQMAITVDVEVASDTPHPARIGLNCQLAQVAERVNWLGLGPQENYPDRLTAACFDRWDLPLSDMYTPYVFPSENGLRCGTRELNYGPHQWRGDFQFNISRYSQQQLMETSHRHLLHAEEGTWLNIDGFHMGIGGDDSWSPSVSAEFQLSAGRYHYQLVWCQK

For the molecule `OC[C@H]1OC(O)[C@H](O)[C@@H](O)[C@H]1O` (stereo partly shown) [galactose], the “% activity with 2.5-20 mM galactose” value is “we only observed very weak inhibition of catalytic activities of LacZ”.
